From patent publication US8273769B2, “Phenoxy acetic acid derivatives” (Merck Serono SA, priority 2009, dated 2012) come the findings set out here.

For one experiment, the target named is T1, CRTH2 (Homo sapiens, UniProt Q9Y5Y4).
T1 sequence (Q9Y5Y4 1-395): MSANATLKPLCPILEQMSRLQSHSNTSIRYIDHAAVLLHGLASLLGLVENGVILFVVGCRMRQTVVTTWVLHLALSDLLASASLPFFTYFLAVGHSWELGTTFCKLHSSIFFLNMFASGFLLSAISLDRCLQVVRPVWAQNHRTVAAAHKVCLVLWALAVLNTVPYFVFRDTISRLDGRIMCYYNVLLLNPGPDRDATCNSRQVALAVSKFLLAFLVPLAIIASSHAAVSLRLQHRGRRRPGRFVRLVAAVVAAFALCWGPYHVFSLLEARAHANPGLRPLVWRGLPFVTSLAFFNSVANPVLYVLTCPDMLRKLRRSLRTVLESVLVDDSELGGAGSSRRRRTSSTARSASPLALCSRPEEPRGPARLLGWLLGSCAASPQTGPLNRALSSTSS
The experiment in a line: Cellular Dielectric Spectroscopy (CHO-CRTH2 cells). The format is cell-based. The following applies: antagonist mode, fixed concentration of PGD2 (EC80). Also on record: expressed in transfected cells; host or cells: CHO-CRTH2 cells. Here is the method: Cellular Dielectric Spectroscopy (CDS) is a label-free technology based on the measurement of complex impedance changes (delta Z or dZ). Impedance (Z) is related to the ratio of voltage to current as described by Ohm's law (Z=V/I). In order to measure the changes in impedance that occur in response to receptor stimulation, mammalian cells are seeded onto a custom 96-well microliter plate that contains electrodes at the bottom of each well. Key contributors to the impedance measurements are changes in cell-substrate adherence, changes in cell shape and volume, and changes in cell-cell interactions. These factors individually or collectively affect the flow of current, influencing the magnitude and characteristics of the signal measured. G-protein coupled receptors ligand-induced activity can be measured using this technology and specific G protein coupling can be identified. Activities of reference agonist and antagonist molecules of CRTH2 have been measured using this assay and similar results were obtained compared to different functional assays.
CHO-CRTH2 cells are cultured in HAM's F12 (Lonza, Switzerland) supplemented with 10% foetal calf serum (PAA, Australia) and 400 μg/ml Geneticin. 100000 cells/well are seeded in standard 96W Microplates (MDS Analytical Technologies) and incubated at 37° C. in 5% CO2 for 24 hours. Cells are washed twice with 135 μl of cell key buffer (Hank's Balanced Salt Solution 1× (HBSS) (Invitrogen) supplemented with 10 mM HEPES pH 7.4 in presence of 1% DMSO). For EC50 determination. 15 μl of increasing concentration of Compounds of Formula (I) diluted in cell key buffer are added to the cells and agonist activity is then recorded for 25 minutes. […] Results are expressed as the amplitude between the highest and the lowest signal produced (max-min). Basal and maximum activities are measured, respectively in absence or presence of PGD2 (EC80).
`Cc1ccncc1C#Cc1cc(Cl)ccc1OCC(=O)O` [Example 15, {4-chloro-2-[(4-methylpyridin-3-yl)ethynyl]phenoxy}acetic acid] yielded a half-maximal inhibitory concentration (IC50) of 74 nM.

The same experiment, now with this note: partial agonists, agonist activity without PGD2.
Molecule `Cc1ccncc1C#Cc1cc(Cl)ccc1OCC(=O)O` [Example 15, {4-chloro-2-[(4-methylpyridin-3-yl)ethynyl]phenoxy}acetic acid] displayed an EC50 of 53 nM and a maximal response (Emax) of 46%.

The target in another experiment is T1, CRTH2. Kind of experiment: Radioligand binding Scintillation Proximity Assay ([3H]PGD2, hCRTH2-CHO cell membranes). On the set-up: host or cells: CHO cells. The following applies: 1.5 nM [3H]PGD2, hCRTH2-CHO cell membranes, SPA. The method in brief:
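SPA competition binding at room temperature, 90 min with agitation: 1.5 nM [3H]PGD2, 10-50 μg/ml hCRTH2-CHO membrane protein, WGA SPA beads, HEPES pH 7.4 with 10 mM MnCl2, 1% DMSO. Non-specific binding defined with 10 μM PGD2; scintillation counting.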
For orientation: In a scintillation proximity assay essentially only radioactivity close to the scintillant gives light.
As for `Cc1ccncc1C#Cc1cc(Cl)ccc1OCC(=O)O` [Example 15, {4-chloro-2-[(4-methylpyridin-3-yl)ethynyl]phenoxy}acetic acid], the IC50 came to 30 nM.
On the same count and under the same terms, next, `COc1ccc(-c2ccc(C#Cc3cc(Cl)ccc3OCC(=O)O)cc2S(C)(=O)=O)cc1` [Example 141, (4-chloro-2-{[4′-methoxy-2-(methylsulfonyl)biphenyl-4-yl]ethynyl}phenoxy)acetic acid]: 8 nM; `COc1cccc(-c2ccc(C#Cc3cc(Cl)ccc3OCC(=O)O)cc2S(C)(=O)=O)c1` [Example 142]: 9 nM.
Same read-out and setting: next, `CS(=O)(=O)c1cc(C#Cc2cc(Cl)ccc2OCC(=O)O)ccc1-c1ccc(C(F)(F)F)cc1` [Example 143, (4-chloro-2-{[2-(methylsulfonyl)-4′-(trifluoromethyl)biphenyl-4-yl]ethynyl}phenoxy)acetic acid]: 50 nM; `CS(=O)(=O)c1cc(C#Cc2cc(Cl)ccc2OCC(=O)O)ccc1-c1ccc(Cl)cc1` [Example 144, (4-chloro-2-{[4′-chloro-2-(methylsulfonyl)biphenyl-4-yl]ethynyl}phenoxy)acetic acid]: 17 nM.
Same read-out and setting: next, `CS(=O)(=O)c1cc(C#Cc2cc(Cl)ccc2OCC(=O)O)ccc1-c1cccc(Cl)c1` [Example 145, (4-chloro-2-{[3′-chloro-2-(methylsulfonyl)biphenyl-4-yl]ethynyl}phenoxy)acetic acid]: 19 nM; `CS(=O)(=O)c1cc(C#Cc2cc(Cl)ccc2OCC(=O)O)ccc1-c1ccccc1Cl` [Example 146, (4-chloro-2-{[2′-chloro-2-(methylsulfonyl)biphenyl-4-yl]ethynyl}phenoxy)acetic acid]: 4 nM.
Consider `O=C(O)COc1ccc2ccccc2c1C#Cc1cccc(O)c1` [Example 147, ({1-[(3-hydroxyphenyl)ethynyl]-2-naphthyl}oxy)acetic acid], for which the half-inhibitory concentration (IC50) came out at 102 nM.
Turning to `CCCS(=O)(=O)c1cccc(C#Cc2c(OCC(=O)O)ccc3ccccc23)c1` [Example 148, [(1-{[3-(propylsulfonyl)phenyl]ethynyl}-2-naphthyl)oxy]acetic acid], the IC50 amounted to 56 nM.
`CCC[S+]([O-])c1ccc(C)c(C#Cc2cc(Cl)ccc2OCC(=O)O)c1` (centres unmarked) [Example 149, (4-chloro-2-{[2-methyl-5-(propylsulfinyl)phenyl]ethynyl}phenoxy)acetic acid] showed a 50% inhibitory concentration (IC50) of 11 nM.
Still for that read-out and setting: to `O=C(O)COc1ccc(Cl)cc1C#Cc1ccc(NC(=O)c2ccc(C(F)(F)F)cc2)cc1` [Example 150, {4-chloro-2-[(4-{[4-(trifluoromethyl)benzoyl]amino}phenyl)ethynyl]phenoxy}acetic acid] belongs 267 nM; to `O=C(O)COc1ccc(Cl)cc1C#Cc1ccc(NC(=O)c2ccccc2)cc1` [Example 151, (2-{[4-(benzoylamino)phenyl]ethynyl}-4-chlorophenoxy)acetic acid], 28 nM.
Same read-out and setting: next, `CCCS(=O)(=O)c1cc(C#Cc2cc(Cl)ccc2OCC(=O)O)c(C)cc1NC(C)=O` [Example 153, (2-{[4-(acetylamino)-2-methyl-5-(propylsulfonyl)phenyl]ethynyl}-4-chlorophenoxy)acetic acid]: 1 nM.
Still for that read-out and setting: to `O=C(O)COc1ccc(Cl)cc1C#Cc1ccc2c(c1)S(=O)(=O)CC2` [Example 155, {4-chloro-2-[(1,1-dioxido-2,3-dihydro-1-benzothien-6-yl)ethynyl]phenoxy}acetic acid] belongs 29 nM.
For `O=C(O)COc1ccc(Cl)cc1C#Cc1ccc2c(c1)S(=O)(=O)C=C2` [Example 156, {4-chloro-2-[(1,1-dioxido-1-benzothien-6-yl)ethynyl]phenoxy}acetic acid], the concentration for half-maximal inhibition (IC50) was 32 nM.
For the molecule `CC(C)(C)N1C(=O)c2ccc(C#Cc3cc(Cl)ccc3OCC(=O)O)cc2S1(=O)=O` [Example 157, {2-[(2-tert-butyl-1,1-dioxido-3-oxo-2,3-dihydro-1,2-benzisothiazol-6-yl)ethynyl]-4-chlorophenoxy}acetic acid], the IC50 came to 17 nM.
The molecule `CC1(C)C(=O)c2ccc(C#Cc3cc(Cl)ccc3OCC(=O)O)cc2S1(=O)=O` [Example 158, {4-chloro-2-[(2,2-dimethyl-1,1-dioxido-3-oxo-2,3-dihydro-1-benzothien-6-yl)ethynyl]phenoxy}acetic acid] returned an IC50 of 34 nM.
The same measure, in the same setting: next, `CC1(C)C(O)c2ccc(C#Cc3cc(Cl)ccc3OCC(=O)O)cc2S1(=O)=O` (centres unmarked) [Example 159, {4-chloro-2-[(3-hydroxy-2,2-dimethyl-1,1-dioxido-2,3-dihydro-1-benzothien-6-yl)ethynyl]phenoxy}acetic acid]: 37 nM.
For `CC1(O)c2ccc(C#Cc3cc(Cl)ccc3OCC(=O)O)cc2S(=O)(=O)C1(C)C` (centres unmarked) [Example 160, {4-chloro-2-[(3-hydroxy-2,2,3-trimethyl-1,1-dioxido-2,3-dihydro-1-benzothien-6-yl)ethynyl]phenoxy}acetic acid], the 50% inhibitory concentration (IC50) worked out at 32 nM.
With `COC1c2ccc(C#Cc3cc(Cl)ccc3OCC(=O)O)cc2S(=O)(=O)C1(C)C` (centres unmarked) [Example 161, {4-chloro-2-[(3-methoxy-2,2-dimethyl-1,1-dioxido-2,3-dihydro-1-benzothien-6-yl)ethynyl]phenoxy}acetic acid], the IC50 came to 24 nM.
Same read-out and setting: next, `CCCCN(C)C(=O)c1ccc(C#Cc2cc(Cl)ccc2OCC(=O)O)cc1S(=O)(=O)C(C)C` [Example 163, (2-{[4-{[butyl(methyl)amino]carbonyl}-3-(isopropylsulfonyl)phenyl]ethynyl}-4-chlorophenoxy)acetic acid]: 32 nM; `CC(C)S(=O)(=O)c1cc(C#Cc2cc(Cl)ccc2OCC(=O)O)ccc1C(=O)N(C)C` [Example 164, (4-chloro-2-{[4-[(dimethylamino)carbonyl]-3-(isopropylsulfonyl)phenyl]ethynyl}phenoxy)acetic acid]: 75 nM.
Regarding `CCN(CC)C(=O)c1ccc(C#Cc2cc(Cl)ccc2OCC(=O)O)cc1S(=O)(=O)C(C)C` [Example 165, (4-chloro-2-{[4-[(diethylamino)carbonyl]-3-(isopropylsulfonyl)phenyl]ethynyl}phenoxy)acetic acid], the 50% inhibitory concentration (IC50) is 53 nM.
Still for that read-out and setting: next, `CCCN(CC)C(=O)c1ccc(C#Cc2cc(Cl)ccc2OCC(=O)O)cc1S(=O)(=O)C(C)C` [Example 166, (4-chloro-2-{[4-{[ethyl(propyl)amino]carbonyl}-3-(isopropylsulfonyl)phenyl]ethynyl}phenoxy)acetic acid]: 43 nM; `CC(C)S(=O)(=O)c1cc(C#Cc2cc(Cl)ccc2OCC(=O)O)ccc1C(=O)N1CCOCC1` [Example 167, (4-chloro-2-{[3-(isopropylsulfonyl)-4-(morpholin-4-ylcarbonyl)phenyl]ethynyl}phenoxy)acetic acid]: 100 nM.
Same read-out and setting: next, `CCCS(=O)(=O)c1ccc(F)c(C#Cc2cc(Cl)ccc2OC(C)(C)C(=O)O)c1` [Example 169, 2-(4-chloro-2-{[2-fluoro-5-(propylsulfonyl)phenyl]ethynyl}phenoxy)-2-methylpropanoic acid]: 287 nM; `CCCS(=O)(=O)c1ccc(C)c(C#Cc2cc(Cl)ccc2OC(CC)C(=O)O)c1` (centres unmarked) [Example 170, 2-(4-chloro-2-{[2-methyl-5-(propylsulfonyl)phenyl]ethynyl}phenoxy)butanoic acid]: 35 nM.
On to `CCCC(Oc1ccc(Cl)cc1C#Cc1cc(S(=O)(=O)CCC)ccc1C)C(=O)O` (centres unmarked) [Example 171, 2-(4-chloro-2-{[2-methyl-5-(propylsulfonyl)phenyl]ethynyl}phenoxy)pentanoic acid], for which the half-maximal inhibitory concentration (IC50) was determined as 66 nM.
`CCCS(=O)(=O)c1ccc(C)c(C#Cc2cc(Cl)ccc2OC(CC(C)C)C(=O)O)c1` (centres unmarked) [Example 172, 2-(4-chloro-2-{[2-methyl-5-(propylsulfonyl)phenyl]ethynyl}phenoxy)-4-methylpentanoic acid] came in with an IC50 of 60 nM.

What is called IC50 is the concentration needed to halve the response being measured. The low end stands for greater potency in that assay, the high end for weaker potency in that assay. A word on the EC50: it is the midpoint of the concentration-response curve. The low end stands for an effect from little substance, the high end for a need for much substance. What is called Emax is the size of the effect at its maximum, as opposed to the concentration needed.
